Where two headings read alike, the source gives them in different places.
Tests used:
Format in all cases: cell-based
[1] = tested on: HSV-1; experiment: Virus yield reduction assay, inhibition of HSV-1 viral replication in Vero cells; conditions: read-out: % Inhibition Against HSV-1 Viral Replication
Procedure: (§1) Compounds of the formulas II and III of the present invention are evaluated in an assay to measure the inhibition of HSV-1 viral replication in the presence of drug over a 14-16 hour period. The assay is discussed in detail by Pritchard, M.N. et al. "A Microliter Virus Yield Reduction Assay for the Evaluation of Antiviral Compounds Against Human Cytomegalovirus and Herpes Simplex Virus", J. Virol. Meth., Vol. 28, pp 101-106 (1990). Briefly, 80% confluent monolayers of Vero cells in 24 well plates are infected with low multiplicities of HSV-1 (MOI = .001). After an absorption period of 1 hour at 37 °C, the monolayers are rinsed with culture media and aliquots of compounds diluted into tissue culture media are added for 14-16 hours at 37 °C in a CO2 atmosphere. The growth media is removed and 1 ml of fresh media is added to each well and plates are placed at -70 °C. After a 1-5 day storage period the plates are rapidly thawed, samples are collected on ice and titrated on fresh Vero cell monolayers. Viral plaques are stained with 0.1% crystal violet in 20% alcohol for 10 minutes and are counted. Data are calculated to reflect the percentage of inhibition at indicated concentration relative to infected, non-drug treated controls.

[2] = tested on: VZV; experiment: Plaque reduction assay, VZV replication in HFF cells over five days
Procedure: Antiviral activity against VZV are evaluated in an assay to measure the reduction of viral replication in the number viral plaques formed over five days of incubation in the presence of compounds of the present invention. Aliquots of VZV are added for 90 minutes to 24 well plates having HFF cells at 80% confluence to yield approximately 25 plaques for media treated wells. The plates are flicked and dilutions of compounds in tissue culture media at 2 time strength are added (0.5 ml per well). Immediately following the addition of drug 0.5 ml of 1.0% agarose is added to the wells and the plates are gently tapped to aid mixing. This final concentration of agarose (0.5%) is insufficient to solidify at 37 °C and serves as a semi solid overlay medium. Plates are undisturbed for five days. On day 5 the plates are examined microscopically for toxicity and plaques are counted using low power microscopy.

[3] = tested on: HSV-2; experiment: Virus yield reduction assay, inhibition of HSV-2 viral replication (substantially the same assay as for HSV-1)
Procedure: as §1
Compounds of the formulas II and III of the present invention are also evaluated in substantially the same assay as described above to measure the inhibition of HSV-2 viral replication.

[4] = Human alphaherpesvirus 1, Vero, 14 h
[5] = Human alphaherpesvirus 1, 14 h, 5 µm, Vero cells, MOI = .001, 14-16 hours
[6] = Human alphaherpesvirus 1, 14 h, 30 µm, Vero cells, MOI = .001, 14-16 hours

Compound | inhibition at 5 µM [1, 4] | inhibition at 30 µM [1, 4] | inhibition at 5 µM [1, 5] | inhibition at 30 µM [1, 6] | also measured
COc1ccc(NC(=O)Nc2ccc(Cl)cc2)cc1NC(=O)Nc1ccc(Cl)cc1 [Example 3, N,N"-(4-methoxy-1,3-phenylene)bis[N'-(4-chlorophenyl)urea]] | 0 to 50% | 0 to 50% | – | – | –
O=[N+]([O-])c1ccc(NC(=S)Nc2ccc(Cc3ccc(NC(=S)Nc4ccc([N+](=O)[O-])cc4)cc3)cc2)cc1 [Example 23, N, N"-(methylenedi-4,1-phenylene)bis[N'-(4-nitrophenyl)thiourea]] | – | – | < 0% | > 90% | % Inhibition Against VZV Viral Replication ([2]; 10µm): + (<50% inhibition at the indicated concentration)
CSC(=NCCc1ccccc1)Nc1ccc(Oc2ccc(NC(=NCCc3ccccc3)SC)cc2)cc1 [Example 12, dimethyl N,N"-(oxydi-4,1-phenylene)bis[N'-(2-phenylethyl)carbamimidothioate]] | – | – | 50 to 90% | > 90% | % Inhibition Against HSV-2 Viral Replication ([3]; 1µm): + (<50% inhibition at the indicated concentration); % Inhibition Against HSV-2 Viral Replication ([3]; 10 µm): ++ (> 50% inhibition at the indicated concentration); % Inhibition Against VZV Viral Replication ([2]; 2µm): +++ (>90% inhibition at the indicated concentration)
O=S(=O)(c1ccc(OCc2ccncc2)cc1)c1ccc(OCc2ccncc2)cc1 [Example 19, bis[(4-pyridyl)methoxy](sulfonyldi-4,1-phenylene)] | 0 to 50% | 0 to 50% | – | – | –
O=S(=O)(c1ccc(OCc2ccc(F)cc2)cc1)c1ccc(OCc2ccc(F)cc2)cc1 [Example 20, bis(4-fluorobenzyloxy)(sulfonyldi-4,1-phenylene)] | 0 to 50% | 50 to 90% | – | – | –
CSC(=Nc1ccc([N+](=O)[O-])cc1)Nc1ccc(Oc2ccc(NC(=Nc3ccc([N+](=O)[O-])cc3)SC)cc2)cc1 [Example 8, dimethyl N,N"-(oxydi-4,1-phenylene)bis[N'-(4-nitrophenyl)carbamimidothioate]] | – | – | < 0% | 0 to 50% | –
O=S(=O)(c1ccc(OCc2ccc(Br)cc2)cc1)c1ccc(OCc2ccc(Br)cc2)cc1 [Example 18, bis(4-bromobenzyloxy)(sulfonyldi-4,1-phenylene)] | 0 to 50% | 50 to 90% | – | – | % Inhibition Against VZV Viral Replication ([2]; 10µm): +++ (>90% inhibition at the indicated concentration)
O=[N+]([O-])c1ccc(COc2ccc(S(=O)(=O)c3ccc(O)cc3)cc2)cc1 [Example 21, hydroxy(4-nitrobenzyloxy)(sulfonyldi-4,1-phenylene)] | < 0% | 50 to 90% | – | – | –
Cc1ccc(NS(=O)(=O)c2cccc(S(=O)(=O)Nc3ccc(C)cc3)c2)cc1 [Example 10, N,N"-(1,3-phenylene)bis[N-(p-tolyl)aminosulfonyl]] | 0 to 50% | 50 to 90% | – | – | –
O=[N+]([O-])c1ccc(NC(=S)Nc2ccc(Oc3ccc(NC(=S)Nc4ccc([N+](=O)[O-])cc4)cc3)cc2)cc1 [Example 14, N,N"-(oxydi-4,1-phenylene)bis[N'-(4-nitrophenyl)thiourea]] | – | – | < 0% | 0 to 50% | –
Cc1cccc(NS(=O)(=O)c2ccc(Oc3ccc(S(=O)(=O)Nc4cccc(C)c4)cc3)cc2)c1 [Example 11, bis[N-(3-methylphenyl)aminosulfonyl](oxydi-4,1-phenylene)] | < 0% | 50 to 90% | – | – | –
CSC(=Nc1ccccc1)Nc1ccc(Oc2ccc(NC(=Nc3ccccc3)SC)cc2)cc1 [Example 5, dimethyl N,N"-(oxydi-4,1-phenylene)bis [N'-(phenyl) carbamimidothioate]] | – | – | < 0% | 0 to 50% | –
O=S(=O)(c1ccc(O)cc1)c1ccc(OCc2ccc(Cl)cc2)cc1 [Example 22, (4-chlorobenzyloxy)hydroxy(sulfonyldi-4,1-phenylene)] | < 0% | 50 to 90% | – | – | –
COc1ccc(NC(=S)Nc2ccc(Cl)cc2)cc1NC(=S)Nc1ccc(Cl)cc1 [Example 6, N,N"-(4-methoxy-1,3-phenylene)bis[N'-(4-chlorophenyl)thiourea]] | < 0% | 0 to 50% | – | – | –
COc1ccc(NC(=S)Nc2ccc([N+](=O)[O-])cc2)cc1NC(=S)Nc1ccc([N+](=O)[O-])cc1 [Example 7, N,N"-(4-methoxy-1,3-phenylene)bis[N'-(4-nitrophenyl)thiourea]] | – | – | < 0% | 0 to 50% | –
O=S(=O)(c1ccc(OCc2ccc(Cl)cc2)cc1)c1ccc(OCc2ccc(Cl)cc2)cc1 [Example 17, bis(4-chlorobenzyloxy)(sulfonyldi-4,1-phenylene)] | 0 to 50% | 50 to 90% | – | – | % Inhibition Against HSV-2 Viral Replication ([3]; 1µm): ++ (> 50% inhibition at the indicated concentration); % Inhibition Against HSV-2 Viral Replication ([3]; 10 µm): ++ (> 50% inhibition at the indicated concentration); % Inhibition Against VZV Viral Replication ([2]; 2µm): ++ (> 50% inhibition at the indicated concentration)
S=C(NCCc1ccccc1)Nc1ccc(Oc2ccc(NC(=S)NCCc3ccccc3)cc2)cc1 [Example 15, N,N''-(oxydi-4,1-phenylene)bis[N'-(2-phenylethyl)thiourea]] | 0 to 50% | 0 to 50% | – | – | % Inhibition Against HSV-2 Viral Replication ([3]; 1µm): + (<50% inhibition at the indicated concentration); % Inhibition Against HSV-2 Viral Replication ([3]; 10 µm): + (<50% inhibition at the indicated concentration); % Inhibition Against VZV Viral Replication ([2]; 2µm): +++ (>90% inhibition at the indicated concentration)
O=C(Nc1ccc(Oc2ccc(NC(=O)c3ccco3)cc2)cc1)c1ccco1 [Example 16, N,N"-(oxydi-4,1-phenylene)bis(2-furancarboxamide)] | 0 to 50% | 50 to 90% | – | – | –
COc1ccc(NC(=O)Nc2ccc(C)cc2)cc1NC(=O)Nc1ccc(C)cc1 [Example 4, N,N"-(4-methoxy-1,3-phenylene)bis[N'-(p-tolyl)urea]] | 0 to 50% | 0 to 50% | – | – | –
COc1cccc(NS(=O)(=O)c2ccc(Oc3ccc(S(=O)(=O)Nc4cccc(OC)c4)cc3)cc2)c1 [Example 9, bis[N-(3-methoxyphenyl)aminosulfonyl](oxydi-4,1-phenylene)] | 0 to 50% | > 90% | – | – | –
Cc1ccc(NC(=S)Nc2ccc(Cl)cc2)cc1NC(=S)Nc1ccc(Cl)cc1 [Example 1, N,N"-(4-methyl-1,3-phenylene)bis[N'-(4-chlorophenyl)thiourea]] | < 0% | 0 to 50% | – | – | –
N=C(Nc1ccc(Cc2ccc(NC(=N)c3ccccc3)cc2)cc1)c1ccccc1 [Example 13, N,N"-(methylenedi-4,1-phenylene)bis [benzenecarboximidamide]] | 0 to 50% | > 90% | – | – | % Inhibition Against HSV-2 Viral Replication ([3]; 1µm): + (<50% inhibition at the indicated concentration); % Inhibition Against HSV-2 Viral Replication ([3]; 10 µm): +++ (>90% inhibition at the indicated concentration); % Inhibition Against VZV Viral Replication ([2]; 2µm): + (<50% inhibition at the indicated concentration)
COc1ccc(NC(=O)Nc2ccc([N+](=O)[O-])cc2)cc1NC(=O)Nc1ccc([N+](=O)[O-])cc1 [Example 2, N,N"-(4-methoxy-1,3-phenylene)bis[N'-(4-nitrophenyl)urea]] | – | – | < 0% | 50 to 90% | –
